US20080051457A1, “Optically Active Phthalamide Derivative, Agricultural or Horticultural Insecticide, and Method of Using the Same” (priority 2004, published 2008)

Assay: logP (pH2.3), physical properties of Tables 1 to 3
Type: physicochemical
Details: not given
From the text: However, the present invention is not limited to these compounds. In the tables, the term “physical properties” means a melting point or logp. The symbol “Me” represents a methyl group, “Et” represents an ethyl group, “Pr” represents a propyl group, “-n” represents normal, and “-i” represents iso.

Structure (SMILES) | Physical properties logP(pH2.3)
Cc1cc(C(F)(C(F)(F)F)C(F)(F)F)ccc1NC(=O)c1cccc(I)c1C(=O)N[C@H](C[S+](C)[O-])C(C)C (stereo partly shown) [Compound 1-355] | 3.13
CSC[C@H](CC(C)C)NC(=O)c1c(Br)cccc1C(=O)Nc1ccc(C(F)(C(F)(F)F)C(F)(F)F)cc1C [Compound 1-360] | 5.16
Cc1cc(C(F)(C(F)(F)F)C(F)(F)F)ccc1NC(=O)c1cccc(Br)c1C(=O)N[C@@H](CC(C)C)CS(C)(=O)=O [Compound 1-362] | 3.82
CC[C@@H](CSC)NC(=O)c1c(I)cccc1C(=O)Nc1ccc(C(F)(C(F)(F)F)C(F)(F)F)cc1C [Compound 1-345] | 4.62
CC[C@@H](CS(C)(=O)=O)NC(=O)c1c(Br)cccc1C(=O)Nc1ccc(C(F)(C(F)(F)F)C(F)(F)F)cc1C [Compound 1-344] | 3.37
CSC[C@@H](NC(=O)c1c(Br)cccc1C(=O)Nc1ccc(C(F)(C(F)(F)F)C(F)(F)F)cc1C)C(C)C [Compound 1-351] | 4.80
CC[C@@H](CS(C)(=O)=O)NC(=O)c1c(I)cccc1C(=O)Nc1ccc(C(F)(C(F)(F)F)C(F)(F)F)cc1C [Compound 1-347] | 3.45
Cc1cc(C(F)(C(F)(F)F)C(F)(F)F)ccc1NC(=O)c1cccc(Cl)c1C(=O)N[C@@H](CC(C)C)C[S+](C)[O-] (stereo partly shown) [Compound 1-358] | 3.27
Cc1cc(C(F)(C(F)(F)F)C(F)(F)F)ccc1NC(=O)c1cccc(Br)c1C(=O)N[C@@H](CC(C)C)C[S+](C)[O-] (stereo partly shown) [Compound 1-361] | 3.30
Cc1cc(C(F)(C(F)(F)F)C(F)(F)F)ccc1NC(=O)c1cccc(I)c1C(=O)N[C@H](CS(C)(=O)=O)C(C)C [Compound 1-356] | 3.70
CC[C@@H](C[S+](C)[O-])NC(=O)c1c(I)cccc1C(=O)Nc1ccc(C(F)(C(F)(F)F)C(F)(F)F)cc1C (stereo partly shown) [Compound 1-346] | 2.90
Cc1cc(C(F)(C(F)(F)F)C(F)(F)F)ccc1NC(=O)c1cccc(Br)c1C(=O)N[C@H](CS(C)(=O)=O)C(C)C [Compound 1-353] | 3.62
Cc1cc(C(F)(C(F)(F)F)C(F)(F)F)ccc1NC(=O)c1cccc(Cl)c1C(=O)N[C@H](C[S+](C)[O-])C(C)C (stereo partly shown) [Compound 1-349] | 3.03
Cc1cc(C(F)(C(F)(F)F)C(F)(F)F)ccc1NC(=O)c1cccc(Cl)c1C(=O)N[C@H](CS(C)(=O)=O)C(C)C [Compound 1-350] | 3.54

Same assay, conditions: Table 1

Structure (SMILES) | Physical properties: logP
CCSC[C@H](C)NC(=O)c1c(I)cccc1C(=O)Nc1ccc(C(F)(C(F)(F)F)C(F)(F)F)c(F)c1C [Compound 1-105] | 4.71
Cc1c(NC(=O)c2cccc(Cl)c2C(=O)N[C@@H](C)C[S+](C)[O-])ccc(C(F)(C(F)(F)F)C(F)(F)F)c1F (stereo partly shown) [Compound 1-205] | 2.69
CCS(=O)(=O)C[C@H](C)NC(=O)c1c(Cl)cccc1C(=O)Nc1ccc(C(F)(F)C(F)(F)F)c(F)c1C [Compound 1-209] | 3.01
CC[S+]([O-])C[C@H](C)NC(=O)c1c(I)cccc1C(=O)Nc1ccc(C(F)(C(F)(F)F)C(F)(F)F)c(F)c1C (stereo partly shown) [Compound 1-106] | 2.97
CCSC[C@H](C)NC(=O)c1c(Br)cccc1C(=O)Nc1ccc(C(F)(F)F)c(F)c1C [Compound 1-180] | 3.80
CCSC[C@H](C)NC(=O)c1c(Cl)cccc1C(=O)Nc1ccc(C(F)(F)C(F)(F)F)c(F)c1C [Compound 1-207] | 4.21
Cc1c(NC(=O)c2cccc(Br)c2C(=O)N[C@@H](C)CS(C)(=O)=O)ccc(C(F)(F)C(F)(F)F)c1F [Compound 1-167] | 2.86
CCS(=O)(=O)C[C@H](C)NC(=O)c1c(I)cccc1C(=O)Nc1ccc(OC(F)(F)F)c(F)c1C [Compound 1-125] | 2.77
CCSC[C@H](C)NC(=O)c1c(I)cccc1C(=O)Nc1ccc(OC(F)(F)F)c(Br)c1Cl [Compound 1-162] | 4.42
CCSC[C@H](C)NC(=O)c1c(I)cccc1C(=O)Nc1cc(F)c(OC(F)(F)F)cc1Br [Compound 1-114] | 4.28
CCS(=O)(=O)C[C@H](C)NC(=O)c1c(I)cccc1C(=O)Nc1ccc(Br)c(F)c1C [Compound 1-122] | 2.49
CCSC[C@H](C)NC(=O)c1c(Br)cccc1C(=O)Nc1cc(F)c(OC(F)(F)F)cc1Br [Compound 1-195] | 4.18
CC[S+]([O-])C[C@H](C)NC(=O)c1c(Br)cccc1C(=O)Nc1ccc(C(F)(F)C(F)(F)F)c(F)c1C (stereo partly shown) [Compound 1-172] | 2.59
CCc1cc(C(F)(C(F)(F)F)C(F)(F)F)ccc1NC(=O)c1cccc(Br)c1C(=O)N[C@@H](C)CS(C)(=O)=O [Compound 1-221] | 3.31
CCS(=O)(=O)C[C@H](C)NC(=O)c1c(I)cccc1C(=O)Nc1cc(F)c(OC(F)(F)F)cc1Br [Compound 1-116] | 3.09
CCS(=O)(=O)C[C@H](C)NC(=O)c1c(Br)cccc1C(=O)Nc1ccc(I)c(F)c1C [Compound 1-185] | 2.51
CCSC[C@H](C)NC(=O)c1c(Cl)cccc1C(=O)Nc1ccc(C(F)(C(F)(F)F)C(F)(F)F)c(F)c1C [Compound 1-201] | 4.54
CCS(=O)(=O)C[C@H](C)NC(=O)c1c(Br)cccc1C(=O)Nc1ccc(C(F)(C(F)(F)F)C(F)(F)F)c(F)c1C [Compound 1-200] | 3.39
CSC[C@H](C)NC(=O)c1c(I)cccc1C(=O)Nc1ccc(Br)c(Br)c1C [Compound 1-153] | 3.55
CC[S+]([O-])C[C@H](C)NC(=O)c1c(Cl)cccc1C(=O)Nc1ccc(C(F)(F)C(F)(F)F)c(F)c1C (stereo partly shown) [Compound 1-208] | 2.56
CCS(=O)(=O)C[C@H](C)NC(=O)c1c(I)cccc1C(=O)Nc1ccc(I)c(F)c1C [Compound 1-134] | 2.59

Structure (SMILES) | Physical properties: logP
Cc1c(NC(=O)c2cccc(I)c2C(=O)N[C@@H](C)CS(C)(=O)=O)ccc(C(F)(F)C(F)(F)F)c1F [Compound 1-137] | 2.97
CCSC[C@H](C)NC(=O)c1c(I)cccc1C(=O)Nc1ccc(Br)c(Br)c1C [Compound 1-129] | 3.89
CSC[C@H](C)NC(=O)c1c(Br)cccc1C(=O)Nc1ccc(C(F)(C(F)(F)F)C(F)(F)F)c(F)c1C [Compound 1-168] | 4.31
CSC[C@H](C)NC(=O)c1c(Cl)cccc1C(=O)Nc1ccc(C(F)(C(F)(F)F)C(F)(F)F)c(F)c1C [Compound 1-204] | 4.23
CSC[C@H](C)NC(=O)c1c(I)cccc1C(=O)Nc1ccc(C(F)(F)C(F)(F)F)c(F)c1C [Compound 1-135] | 4.03
Cc1c(NC(=O)c2cccc(I)c2C(=O)N[C@@H](C)CS(C)(=O)=O)ccc(I)c1F [Compound 1-152] | 2.40
CCSC[C@H](C)NC(=O)c1c(I)cccc1C(=O)Nc1ccc(Br)c(F)c1C [Compound 1-120] | 3.65
CCS(=O)(=O)C[C@H](C)NC(=O)c1c(I)cccc1C(=O)Nc1ccc(C(F)(F)F)c(F)c1C [Compound 1-128] | 2.74
CCSC[C@H](C)NC(=O)c1c(Br)cccc1C(=O)Nc1ccc(C(F)(F)C(F)(F)F)c(Cl)c1C [Compound 1-174] | 4.43
Cc1c(NC(=O)c2cccc(I)c2C(=O)N[C@@H](C)CS(C)(=O)=O)ccc(Br)c1Br [Compound 1-155] | 2.49
CCS(=O)(=O)C[C@H](C)NC(=O)c1c(Cl)cccc1C(=O)Nc1ccc(C(F)(F)C(F)(F)F)c(Cl)c1C [Compound 1-212] | 3.14
CCSC[C@H](C)NC(=O)c1c(Br)cccc1C(=O)Nc1ccc(Br)c(F)c1C [Compound 1-177] | 3.54
CCc1cc(C(F)(C(F)(F)F)C(F)(F)F)ccc1NC(=O)c1cccc(Cl)c1C(=O)N[C@@H](C)CS(C)(=O)=O [Compound 1-218] | 3.26
Cc1c(NC(=O)c2cccc(I)c2C(=O)N[C@@H](C)CS(C)(=O)=O)ccc(OC(F)(F)F)c1F [Compound 1-140] | 2.60
CCSC[C@H](C)NC(=O)c1c(I)cccc1C(=O)Nc1ccc(C(F)(F)F)c(F)c1C [Compound 1-126] | 3.90
CSC[C@H](C)NC(=O)c1c(I)cccc1C(=O)Nc1ccc(I)c(F)c1C [Compound 1-150] | 3.42
Cc1c(NC(=O)c2cccc(Br)c2C(=O)N[C@@H](C)C[S+](C)[O-])ccc(C(F)(F)C(F)(F)F)c1F (stereo partly shown) [Compound 1-166] | 2.42
CCSC[C@H](C)NC(=O)c1c(I)cccc1C(=O)Nc1ccc(OC(F)(F)F)c(Cl)c1Cl [Compound 1-159] | 4.41
CCSC[C@H](C)NC(=O)c1c(I)cccc1C(=O)Nc1ccc(OC(F)(F)F)c(F)c1C [Compound 1-123] | 3.90
CCSC[C@H](C)NC(=O)c1c(Br)cccc1C(=O)Nc1ccc(OC(F)(F)F)c(F)c1C [Compound 1-189] | 3.81
